Results reported in patent US8912236B2 (Alcon Research, Ltd., priority 2009, dated 2014).

Test system: FGFR
Assay: Kinase inhibition, cell-free enzymatic assay
Format: biochemical
Conditions: 1 mM ATP

Q: For `Cc1ccc(F)c(NC(=O)Nc2ccc(-c3cccc4[nH]nc(N)c34)cc2)c1` [RTK Inhibitor, N-[4-(3-amino-1H-indazol-4-yl)phenyl]-N′-(2-fluoro-5-methylphenyl) urea], which IC50 is on record?
A: Its IC50 is over 12.5 µM.
